Converted amounts (≈) assume the structure as drawn.
Key:
[1] = system: S. aureus MSSA1; assay: Silkworm systemic infection model, therapeutic activity (ED50); format: in vivo, Staphylococcus aureus; conditions: for ED50: Staphylococcus aureus, silkworms infected with S. aureus MSSA1 (Fig. 2), read-out: ED50
Source text: (§1) We synthesized 50 compounds (Fig. 2, Supplementary Table 1) using the Steglich esterification scheme[31] in the presence of a […], 1-ethyl-3-(3-dimethylaminopropyl)-carbodiimide hydrochloride (Fig. 1b). Antimicrobial activities of the compounds were examined by determining the MIC against S. aureus MRSA4 in vitro; therapeutic activities were examined using a systemic infection model of silkworms infected with S. aureus MSSA1.
A total of 108,373 compounds from the chemical library of the Drug Discovery Initiative at the University of Tokyo were screened for antibacterial activity against S. aureus strain MRSA4 as previously reported. Those compounds that inhibited the growth of MRSA4 at 100 µM were further evaluated for their therapeutic effects in silkworms infected with S. aureus strain MSSA1 according to previously reported studies[17],[21].

[2] = system: S. aureus MRSA4; assay: MIC against S. aureus MRSA4 in vitro (broth dilution); format: cell-based; conditions: Staphylococcus aureus; S. aureus MRSA4 in vitro; SAR series (Fig. 2)
Source text: as §1, with “MSSA1. […]” for “MSSA1.”
Antimicrobial activity was assessed by determining the MIC by broth dilution assay according to our previous reports[21],[35],[36] as per the Clinical and Laboratory Standards Institute[37]. Briefly, serial dilutions of compound 5, compound 7, and positive controls were prepared in cation-adjusted Mueller-Hinton Broth (MHB, Difco, Franklin Lakes, NJ, USA), 100 µl of which was dispensed into each well of a round-bottomed 96-well plate. The final concentrations in the well ranged from 128 µg/ml to 0.0625 µg/ml. Bacteria were grown at 37 °C overnight on either Luria Bertani (tryptone 10 g/l, yeast extract 5 g/l, NaCl 10 g/l) or Tryptic Soy Broth (TSB, Difco) agar plates or sheep blood agar plates (Eiken Chemical Co. Ltd., Tokyo, Japan). Bacterial inoculum was prepared by direct suspension of the colonies in 0.9% saline, and adjusted to obtain a turbidity equivalent to a 0.5 McFarland standard using a spectrophotometer UV-1280 (Shimadzu Corp., Kyoto, Japan). The suspension was then diluted 1:20 in cation-adjusted MHB (Difco), and 10 µl of it was inoculated into each well of previously prepared 96-well plates containing compounds to obtain approximately 5 × 10^4 colony forming units/well and incubated at 37 °C for 20 h. […] Vancomycin (Wako Pure Chemicals) or norfloxacin (Sigma Aldrich, St Louis, MO, USA) were used as positive controls. Each plate contained a growth control well and a vehicle control well. The MIC was determined as the minimum concentration that inhibited the growth of the bacteria.

Row | SMILES | MIC [2] [µg/mL] | survival of the S. aureus-infected silkworms ([1]; S. aureus-infected silkworms) | ED50 [1] [mg/kg]
1 | O=C(OCc1cc(Cl)cc(Cl)c1)c1ccc([N+](=O)[O-])o1 [compound 1] | 12.5 (≈ 39.5 µM) | slightly prolonged the survival | > 95
2 | O=C(OCc1cc(Cl)cc(Cl)c1)c1ccco1 [compound 2] | > 200 | – | –
3 | O=C(OCc1cccc(Cl)c1)c1ccc([N+](=O)[O-])o1 [compound 3] | 12.5 (≈ 44.4 µM) | – | > 87
4 | O=C(OCc1ccccc1)c1ccc([N+](=O)[O-])o1 [compound 4] | 12.5 (≈ 50.6 µM) | – | > 95
5 | O=C(OCc1ccc2ccccc2c1)c1ccc([N+](=O)[O-])o1 [compound 8] | > 200 | – | > 100
6 | O=C(OCc1ccc2ccccc2c1)c1ccc([N+](=O)[O-])s1 [compound 9] | 1.6 (≈ 5.11 µM) | – | > 105
7 | O=C(NCc1cccc(Cl)c1)c1ccc([N+](=O)[O-])o1 [compound 10] | 3.1 (≈ 11 µM) | – | > 105
8 | O=C(NCc1cccc(Cl)c1)c1ccc([N+](=O)[O-])s1 [compound 11] | 6.3 (≈ 21.2 µM) | – | > 170
9 | CN(Cc1ccccc1)C(=O)c1ccc([N+](=O)[O-])s1 [compound 14] | 50 (≈ 181 µM) | – | > 210
10 | O=C(COc1cc(Cl)cc(Cl)c1)c1ccc([N+](=O)[O-])o1 [compound 15] | 50 (≈ 158 µM) | – | > 105
11 | O=C(OCc1cccc(Br)c1)c1ccc([N+](=O)[O-])o1 [compound 17] | 12.5 (≈ 38.3 µM) | – | > 220
12 | O=Cc1ccc(C(=O)OCc2cc(Cl)cc(Cl)c2)s1 [compound 23] | 25 (≈ 79.3 µM) | – | > 100
13 | O=Cc1ccc(C(=O)OCc2cc(Br)cc(Br)c2)s1 [compound 24] | 25 (≈ 61.9 µM) | – | > 100
14 | O=Cc1ccc(C(=O)OCc2cc(F)cc(Cl)c2)s1 [compound 25] | 50 (≈ 167 µM) | – | > 100
15 | O=C(OCc1cc(Cl)cc(Cl)c1)c1cc(Br)c(Br)s1 [compound 28] | > 200 | – | > 100
16 | O=C(OCc1cc(Cl)cc(Cl)c1)c1cc([N+](=O)[O-])n[nH]1 [compound 30] | 1.6 (≈ 5.06 µM) | – | > 210
17 | Cc1ccc(C(=O)OCc2cc(Cl)cc(Cl)c2)s1 [compound 31] | > 200 | – | –
18 | O=C(OCc1cc(Cl)cc(Cl)c1)c1cccc([N+](=O)[O-])n1 [compound 33] | > 400 | – | –
19 | CC(=O)c1ccc(C(=O)OCc2cc(Cl)cc(Cl)c2)s1 [compound 34] | > 400 | – | –
20 | CS(=O)(=O)c1ccc(COC(=O)c2ccc([N+](=O)[O-])s2)cc1 [compound 51] | > 400 | – | –
21 | O=C(OCc1ccc(OC(F)(F)F)cc1)c1ccc([N+](=O)[O-])s1 [compound 57] | 6.3 (≈ 18.1 µM) | – | –

More lines, main results first:

Row | MIC [2] [µg/mL] | SMILES | survival of the S. aureus-infected silkworms ([1]; S. aureus-infected silkworms) | ED50 [1] [mg/kg]
22 | 0.5 (≈ 1.68 µM) | O=C(OCc1cccc(Cl)c1)c1ccc([N+](=O)[O-])s1 [compound 6] | – | 65
23 | 50 (≈ 151 µM) | O=C(COc1cc(Cl)cc(Cl)c1)c1ccc([N+](=O)[O-])s1 [compound 16] | – | > 220
24 | 1.6 (≈ 4.68 µM) | O=C(OCc1cccc(Br)c1)c1ccc([N+](=O)[O-])s1 [compound 18] | – | 53
25 | 0.4 (≈ 1.42 µM) | O=C(OCc1cccc(F)c1)c1ccc([N+](=O)[O-])s1 [compound 19] | – | > 87
26 | 0.4 (≈ 1.27 µM) | O=C(OCc1cc(F)cc(Cl)c1)c1ccc([N+](=O)[O-])s1 [compound 20] | – | 17
27 | 6.3 (≈ 15 µM) | O=C(OCc1cc(Br)cc(Br)c1)c1ccc([N+](=O)[O-])s1 [compound 21] | – | > 100
28 | > 200 | O=C(OCc1c(Br)c(Br)c(Br)c(Br)c1Br)c1ccc([N+](=O)[O-])s1 [compound 22] | – | –
29 | > 200 | O=C(OCc1cc(Cl)cc(Cl)c1)c1ccc(Cl)s1 [compound 26] | – | –
30 | > 200 | O=C(OCc1cc(Cl)cc(Cl)c1)c1ccc(Br)s1 [compound 27] | – | –
31 | > 400 | O=C(OCc1cc(Cl)cc(Cl)c1)c1csc([N+](=O)[O-])c1 [compound 36] | – | –
32 | 3.1 (≈ 9.33 µM) | O=C(OCc1ccc(Cl)cc1Cl)c1ccc([N+](=O)[O-])s1 [compound 39] | – | 28
33 | 1.6 (≈ 4.62 µM) | CC(OC(=O)c1ccc([N+](=O)[O-])s1)c1ccc(Cl)cc1Cl (centres unmarked) [compound 40] | – | > 160
34 | 1.6 (≈ 4.36 µM) | O=C(OCc1c(Cl)cc(Cl)cc1Cl)c1ccc([N+](=O)[O-])s1 [compound 41] | – | 32
35 | 3.1 (≈ 9.33 µM) | O=C(OCc1c(Cl)cccc1Cl)c1ccc([N+](=O)[O-])s1 [compound 42] | – | > 180
36 | 3.1 (≈ 9.33 µM) | O=C(OCc1cc(Cl)ccc1Cl)c1ccc([N+](=O)[O-])s1 [compound 43] | – | > 180
37 | 6.3 (≈ 20 µM) | O=C(OCc1c(F)cccc1Cl)c1ccc([N+](=O)[O-])s1 [compound 44] | – | > 180
38 | 1.6 (≈ 4.85 µM) | Cc1ccc(Cl)c(COC(=O)c2ccc([N+](=O)[O-])s2)c1F [compound 45] | – | 82
39 | 3.1 (≈ 10.4 µM) | O=C(OCc1cc(F)cc(F)c1)c1ccc([N+](=O)[O-])s1 [compound 46] | – | 81
40 | 3.1 (≈ 11.2 µM) | Cc1ccc(COC(=O)c2ccc([N+](=O)[O-])s2)cc1 [compound 47] | – | 33
41 | 3.1 (≈ 10.4 µM) | O=C(OCc1ccc(Cl)cc1)c1ccc([N+](=O)[O-])s1 [compound 48] | – | 58
42 | > 400 | COc1cc(COC(=O)c2ccc([N+](=O)[O-])s2)cc(OC)c1 [compound 49] | – | –
43 | 3.1 (≈ 9.07 µM) | O=C(OCc1cc2c(cc1Cl)OCO2)c1ccc([N+](=O)[O-])s1 [compound 50] | – | > 240
44 | 25 (≈ 75.5 µM) | O=C(NCc1cc(Cl)cc(Cl)c1)c1ccc([N+](=O)[O-])s1 [compound 52] | – | > 190
45 | 6.3 (≈ 21.6 µM) | Cc1cc(C)cc(COC(=O)c2ccc([N+](=O)[O-])s2)c1 [compound 53] | – | > 210
46 | 6.3 (≈ 20.4 µM) | CSc1ccc(COC(=O)c2ccc([N+](=O)[O-])s2)cc1 [compound 54] | – | 43
47 | 25 (≈ 81.6 µM) | CN(C)c1cccc(COC(=O)c2ccc([N+](=O)[O-])s2)c1 [compound 55] | – | –
